Source: PMC12152147, “DDB1 engagement defines the selectivity of S656 analogs for cyclin K degradation over CDK inhibition” (EMBO Reports, 2025)
Read-outs that look alike come from different tables or passages of the source.

Experiments:
[1] = target: T1, CDK9/CyclinT (Homo sapiens, UniProt P50750); assay: CDK9/CyclinT in vitro kinase activity, single concentration 1 μM; type: biochemical; conditions: single concentration 1 μM
T1 construct: purchased BPS Bioscience 79628
Experimental: Kinase activity was assessed using the kinase assay kits from BPS Bioscience for CDK1, CDK9 and CDK12 with Kinase Glo MAX in duplicates. Compounds were tested at a single concentration of 1 μM for CDK1 and CDK9 activity, and in a dilution ranging from 0.64 nM to 50 μM for CDK12 activity. Chemiluminescence was read using the Neo Synergy BioTek plate reader.

[2] = tested on: OCI-AML5 cells expressing shRNAs targeting CDK1, 2, 4, 7, 9, cyclin K; assay: Dose response in OCI-AML5 expressing shRNAs targeting CDK1, 2, 4, 7, 9, cyclin K or control; type: cell-based, H. sapiens; conditions: for Class: class from shRNA IC50 profile and cyclin K-eGFP degradation
[3] = tested on: cyclin KeGFP; assay: Cyclin KeGFP reporter system (eGFP/mCherry MFI by flow cytometry);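 for % degradation cyclin K-eGFP: 10 μM compound for 3 h relative to DMSO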; type: cell-based, H. sapiens; conditions: for % degradation cyclin K-eGFP: cyclin K-eGFP reporter
Experimental: We used the cyclin KeGFP reporter system previously described (Słabicki et al, [2020]). Lentiviral vector (Addgene plasmid #169930) was used to infect OCI-AML5 at a MOI of 5 and were selected with puromycin. Cells were seeded in methylcellulose and let grown as colonies for 10 days. Colonies were isolated, expanded and selected based on cyclin KeGFP fluorescence in presence and absence of cyclin K degrader molecules. Selected G7 clone was used for all reported experiments. Fluorescent signal of cyclin KeGFP and mCherry were quantified by flow cytometry (BD LSRII) in each condition and the geometric mean fluorescence intensity (MFI) were calculated using FlowJo (BD Biosciences). The ratio of eGFP to mCherry was normalized to DMSO-treated cells.

[4] = tested on: OCI-AML5 cells; assay: Dose-response proliferative assay in OCI-AML5 (4 days, CellTiterGlo); type: cell-based, H. sapiens; conditions: Homo sapiens
Experimental: Cell lines were purchased from the ATCC or donated from collaborators. OCI-AML5 cell line was cultured in αMEM, 10% heat-inactivated FBS supplemented with 10 ng/mL GM-CSF, OCI-AML1, U2OS and HEK293T cell lines in DMEM, 10% heat-inactivated FBS. Cells were maintained at 37 °C in 5% CO2 atmosphere.
Dose-response assays in primary AML specimens were performed as in chemical screen (see above) with the exception that compounds were tested in serial dilution (8 dilutions, 1:4, 10 μM down to 0.5 nM). Dose-response assays in OCI-AML5 cell line were conducted similarly with the following modifications: 300 cells per well were seeded in 50 μL of cell line media and cell viability was evaluated after 4 days in culture.

[5] = tested on: OCI-AML5 cells expressing shRNA targeting CUL4A or CUL4B; assay: Dose response in OCI-AML5 expressing shRNAs targeting CUL4A, CUL4B or control; type: cell-based, H. sapiens; conditions: ratio of IC50 in shCUL4A vs shCTRL OCI-AML5 cells
[6] = OCI-AML5 expressing shRNA CCNK (cyclin K), read-out: IC50 shRNA CCNK
[7] = OCI-AML5 expressing shRNA CDK1, read-out: IC50 shRNA CDK1
[8] = OCI-AML5 expressing shRNA CDK2, read-out: IC50 shRNA CDK2
[9] = OCI-AML5 expressing shRNA CDK4, read-out: IC50 shRNA CDK4
[10] = OCI-AML5 expressing shRNA CDK7, read-out: IC50 shRNA CDK7
[11] = OCI-AML5 expressing shRNA CDK9, read-out: IC50 shRNA CDK9
[12] = Homo sapiens, OCI-AML-5, OCI-AML5 expressing shRNA CCNK (cyclin K), read-out: IC50 shRNA CCNK
[13] = Homo sapiens, OCI-AML-5, OCI-AML5 expressing shRNA CDK1, read-out: IC50 shRNA CDK1
[14] = Homo sapiens, OCI-AML-5, OCI-AML5 expressing shRNA CDK2, read-out: IC50 shRNA CDK2
[15] = Homo sapiens, OCI-AML-5, OCI-AML5 expressing shRNA CDK4, read-out: IC50 shRNA CDK4
[16] = Homo sapiens, OCI-AML-5, OCI-AML5 expressing shRNA CDK7, read-out: IC50 shRNA CDK7
[17] = Homo sapiens, OCI-AML-5, OCI-AML5 expressing shRNA CDK9, read-out: IC50 shRNA CDK9
[18] = OCI-AML-5, OCI-AML5 cells, read-out: IC50 in AML5

T1 sequence (P50750 whole entry): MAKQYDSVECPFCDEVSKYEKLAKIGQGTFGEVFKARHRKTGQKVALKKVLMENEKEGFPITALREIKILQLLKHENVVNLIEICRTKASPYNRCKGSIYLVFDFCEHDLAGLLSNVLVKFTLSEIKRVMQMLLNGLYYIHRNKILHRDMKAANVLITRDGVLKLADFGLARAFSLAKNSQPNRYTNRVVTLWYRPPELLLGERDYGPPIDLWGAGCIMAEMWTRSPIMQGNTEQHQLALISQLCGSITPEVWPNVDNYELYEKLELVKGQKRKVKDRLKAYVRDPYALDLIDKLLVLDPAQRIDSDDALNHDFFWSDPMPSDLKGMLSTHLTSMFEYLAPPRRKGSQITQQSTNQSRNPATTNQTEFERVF
T1 sequence (O60563 whole entry partner): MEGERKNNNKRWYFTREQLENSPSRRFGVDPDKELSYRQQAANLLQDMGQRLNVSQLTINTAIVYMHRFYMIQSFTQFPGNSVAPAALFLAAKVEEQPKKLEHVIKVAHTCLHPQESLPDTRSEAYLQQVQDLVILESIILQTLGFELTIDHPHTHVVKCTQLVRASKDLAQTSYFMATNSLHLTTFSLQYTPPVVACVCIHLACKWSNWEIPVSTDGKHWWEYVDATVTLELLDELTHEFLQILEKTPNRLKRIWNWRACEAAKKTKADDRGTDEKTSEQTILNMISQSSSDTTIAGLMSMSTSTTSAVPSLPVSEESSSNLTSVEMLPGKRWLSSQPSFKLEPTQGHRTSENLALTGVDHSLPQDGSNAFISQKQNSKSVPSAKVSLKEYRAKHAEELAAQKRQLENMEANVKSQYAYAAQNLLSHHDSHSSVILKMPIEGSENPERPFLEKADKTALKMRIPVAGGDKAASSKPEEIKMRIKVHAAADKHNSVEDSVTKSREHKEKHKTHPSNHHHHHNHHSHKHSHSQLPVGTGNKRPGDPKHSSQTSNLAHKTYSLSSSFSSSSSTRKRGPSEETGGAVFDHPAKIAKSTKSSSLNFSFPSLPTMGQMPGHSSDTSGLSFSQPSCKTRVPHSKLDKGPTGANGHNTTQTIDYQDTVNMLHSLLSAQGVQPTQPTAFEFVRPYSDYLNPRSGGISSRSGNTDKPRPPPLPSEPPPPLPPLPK

SMILES	% CDK9 inhibition [1]	IC50 [2, 6]	IC50 [2, 7]	IC50 [2, 8]	IC50 [2, 9]	IC50 [2, 10]	IC50 [2, 11]	Class [2]	% degradation cyclin K-eGFP [3]	inhibition at 1 µM [1]	IC50 [2, 12]	IC50 [2, 13]	IC50 [2, 14]	IC50 [2, 15]	IC50 [2, 16]	IC50 [2, 17]	IC50 [4, 18]	activity after alteration of the aminothiazole core / bulky replacement [2]	other results
CC(=O)Nc1ncc(SCc2cccnc2)s1 [UOM-005188]	1%	> 10 µM	2.97 µM	> 10 µM	> 10 µM	> 10 µM	> 10 µM	2	6%										
O=C(Cc1ccc(C(F)(F)F)cc1)Nc1ncc(SCc2cccnc2)s1 [UOM-005203]								mixed 1-2	51%	72%	3.02 µM	2.68 µM	4.39 µM	3.59 µM	3.83 µM	3.64 µM	4.29 µM		Ratio shCUL4A/shCTRL [5]: 1.13
O=C(Cc1cc(F)ccc1Br)Nc1ncc(SCc2cccnc2)s1 [UOM-005204]								2	12%	15%	6.94 µM	3.57 µM	8.34 µM	5.28 µM	8.07 µM	4.1 µM	4.48 µM		Ratio shCUL4A/shCTRL [5]: 1.11
Cc1nnc(NC(=O)Cc2ccc(N(C)C)cc2)s1 [UOM-005596]	0%	> 10 µM	> 10 µM	> 10 µM	> 10 µM	> 10 µM	> 10 µM	inactive	0%									loss of binding of the compounds to CDK	
CN(C)c1ccc(CC(=O)Nc2nccs2)cc1 [UOM-005597]								inactive	4%	0%	> 10 µM	> 10 µM	> 10 µM	> 10 µM	> 10 µM	> 10 µM	> 10 µM		
Cc1csc(NC(=O)Cc2ccc(N(C)C)cc2)n1 [UOM-005598]	0%	> 10 µM	> 10 µM	> 10 µM	> 10 µM	> 10 µM	> 10 µM	inactive	1%									neither bind to CDKs, nor degrade Cyclin K	
CN(C)c1ccc(CC(=O)Nc2nc3c(s2)CCC3)cc1 [UOM-005599]								inactive	13%	0%	> 10 µM	> 10 µM	> 10 µM	> 10 µM	> 10 µM	> 10 µM	> 10 µM	neither bind to CDKs, nor degrade Cyclin K	
CN(C)c1ccc(CC(=O)Nc2nc3ccccc3s2)cc1 [UOM-005600]	10%	> 10 µM	> 10 µM	> 10 µM	> 10 µM	> 10 µM	> 10 µM	inactive	29%									neither bind to CDKs, nor degrade Cyclin K	
CN(C)c1ccc(CC(=O)Nc2nncs2)cc1 [UOM-005601]	0%	> 10 µM	> 10 µM	> 10 µM	> 10 µM	> 10 µM	> 10 µM	inactive	1%									loss of binding of the compounds to CDK	
COC(=O)c1cnc(NC(=O)Cc2ccc(N(C)C)cc2)s1 [UOM-005602]								inactive	26%	0%	> 10 µM	> 10 µM	> 10 µM	> 10 µM	> 10 µM	> 10 µM	> 10 µM		
CN(C)c1ccc(CC(=O)Nc2nc3ccccc3[nH]2)cc1 [UOM-005603]								inactive	10%	0%	> 10 µM	> 10 µM	> 10 µM	> 10 µM	> 10 µM	> 10 µM	> 10 µM	neither bind to CDKs, nor degrade Cyclin K	
CN(C)c1ccc(CC(=O)Nc2nc3ccccc3o2)cc1 [UOM-005604]	0%	> 10 µM	> 10 µM	> 10 µM	> 10 µM	> 10 µM	> 10 µM	inactive	8%									neither bind to CDKs, nor degrade Cyclin K	
CN(C)c1ccc(CC(=O)Nc2nnc(SCc3cccnc3)s2)cc1 [UOM-005628]								inactive	0%	0%	> 10 µM	> 10 µM	> 10 µM	> 10 µM	> 10 µM	> 10 µM	> 10 µM	loss of binding of the compounds to CDK	
CN(C)c1ccc(C(=O)Nc2ncc(SCc3cccnc3)s2)cc1 [UOM-005845]																			IC50 ([4]; OCI-AML-5, 96 h, 4 days incubation, read-out: IC50 OCI-AML5): 1.97 µM; % cyclin KeGFP degradation ([3]; 3 h, 10 μM, compared to DMSO, OCI-AML5 G7 clone): 0%
